Experimental findings from US20190367516A1 (Bayer Pharma Aktiengesellschaft, priority 2015, published 2019) are described below.

This assay concerns the target T1, human M2 receptor (Homo sapiens, UniProt P08172).
T1 sequence (P08172 1-466): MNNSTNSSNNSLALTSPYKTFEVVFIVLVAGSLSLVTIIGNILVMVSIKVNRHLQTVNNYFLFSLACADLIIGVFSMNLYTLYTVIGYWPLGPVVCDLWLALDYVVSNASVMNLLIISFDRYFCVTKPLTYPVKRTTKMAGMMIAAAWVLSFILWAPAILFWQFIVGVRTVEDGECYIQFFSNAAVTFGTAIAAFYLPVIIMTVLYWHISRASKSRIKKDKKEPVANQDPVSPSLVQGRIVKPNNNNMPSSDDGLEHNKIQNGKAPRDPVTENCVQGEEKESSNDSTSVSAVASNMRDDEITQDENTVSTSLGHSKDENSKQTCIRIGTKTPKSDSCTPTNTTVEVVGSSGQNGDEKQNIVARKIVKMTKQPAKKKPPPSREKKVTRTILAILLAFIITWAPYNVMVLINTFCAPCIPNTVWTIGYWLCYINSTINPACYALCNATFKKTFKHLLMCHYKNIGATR
The following applies: Receptor activity EC50, M2-GIRK1/4 activation test, acetylcholine at EC20; allosteric potency; in some cases mean values from two or more determinations.
Turning to `O=C(NC1(C(F)(F)F)CCOCC1)c1cn(-c2ccc(F)cc2F)c2nc(N3C[C@@H](O)CC3=O)ccc2c1=O` [Example 237, 1-(2,4-Difluorophenyl)-7-[(4S)-4-hydroxy-2-oxopyrrolidin-1-yl]-4-oxo-N-[4-(trifluoromethyl)tetrahydro-2H-pyran-4-yl]-1,4-dihydro-1,8-naphthyridine-3-carboxamide], the EC50 – broadly, the concentration giving half of the maximal effect – was found to be 751 nM.

For `O=C(NC(c1c(F)cccc1F)C(F)(F)F)c1cn(-c2ccc(F)cc2F)c2nc(N3CCCC(O)C3=O)ccc2c1=O` (centres unmarked) [Example 247, 1-(2,4-Difluorophenyl)-N-[1-(2,6-difluorophenyl)-2,2,2-trifluoroethyl]-7-[3-hydroxy-2-oxopiperidin-1-yl]-4-oxo-1,4-dihydro-1,8-naphthyridine-3-carboxamide], the EC50 stood at 160 nM.

In turn, `CC[C@@H](NC(=O)c1cn(-c2ccc(F)cc2F)c2nc(N3C[C@@H](C(=O)OC)OC3=O)ccc2c1=O)C(F)(F)F` [Example 257, Methyl (5S)-3-[8-(2,4-difluorophenyl)-5-oxo-6-{[(2R)-1,1,1-trifluorobutan-2-yl]carbamoyl}-5,8-dihydro-1,8-naphthyridin-2-yl]-2-oxo-1,3-oxazolidine-5-carboxylate] had an EC50 of 138 nM.

For `O=C(NC(c1ccccc1Cl)C(F)(F)F)c1cn(-c2ccc(F)cc2F)c2nc(N3CC[C@H](O)C3=O)ccc2c1=O` (stereo partly drawn) [Example 298, N-[1-(2-Chlorophenyl)-2,2,2-trifluoroethyl]-1-(2,4-difluorophenyl)-7-[(3S)-3-hydroxy-2-oxopyrrolidin-1-yl]-4-oxo-1,4-dihydro-1,8-naphthyridine-3-carboxamide], the EC50 amounted to 74 nM.

With `O=C(NC(c1ccccc1Cl)C(F)(F)F)c1cn(-c2ccc(F)cc2F)c2nc(N3CC[C@@H](O)C3=O)ccc2c1=O` (stereo partly drawn) [Example 299, N-[1-(2-Chlorophenyl)-2,2,2-trifluoroethyl]-1-(2,4-difluorophenyl)-7-[(3R)-3-hydroxy-2-oxopyrrolidin-1-yl]-4-oxo-1,4-dihydro-1,8-naphthyridine-3-carboxamide], the EC50 came to 56 nM.

`O=C(NC(c1c(F)cccc1F)C(F)(F)F)c1cn(-c2ccc(F)cc2F)c2nc(N3CC[C@@H](O)C3=O)ccc2c1=O` (stereo partly drawn) [Example 300, 1-(2,4-Difluorophenyl)-N-[1-(2,6-difluorophenyl)-2,2,2-trifluoroethyl]-7-[(3R)-3-hydroxy-2-oxopyrrolidin-1-yl]-4-oxo-1,4-dihydro-1,8-naphthyridine-3-carboxamide] registered an EC50 of 54 nM.

The compound `CC[C@@H](NC(=O)c1cn(-c2c(F)cccc2Cl)c2nc(N3CC[C@@H](O)C3=O)ccc2c1=O)C(F)(F)F` [Example 308, 1-(2-Chloro-6-fluorophenyl)-7-[(3R)-3-hydroxy-2-oxopyrrolidin-1-yl]-4-oxo-N-[(2R)-1,1,1-trifluorobutan-2-yl]-1,4-dihydro-1,8-naphthyridine-3-carboxamide] registered an EC50 of 30 nM.

Turning to `CC[C@@H](NC(=O)c1cn(-c2c(F)cccc2Cl)c2nc(N3CC[C@H](O)C3=O)ccc2c1=O)C(F)(F)F` [Example 309, 1-(2-Chloro-6-fluorophenyl)-7-[(3S)-3-hydroxy-2-oxopyrrolidin-1-yl]-4-oxo-N-[(2R)-1,1,1-trifluorobutan-2-yl]-1,4-dihydro-1,8-naphthyridine-3-carboxamide], a half-maximal effect (EC50) was put at 40 nM.

In the case of `CC[C@@H](NC(=O)c1cn(-c2ccc(F)cc2F)c2nc(N3CCN(C)C3=O)ccc2c1=O)C(F)(F)F` [Example 321, 1-(2,4-Difluorophenyl)-7-(3-methyl-2-oxoimidazolidin-1-yl)-4-oxo-N-[(2R)-1,1,1-trifluorobutan-2-yl]-1,4-dihydro-1,8-naphthyridine-3-carboxamide], a half-maximal effect (EC50) was put at 43 nM.

`C[C@@H](COC(F)(F)F)NC(=O)c1cn(-c2c(F)cc(F)cc2Cl)c2nc(N3C[C@@H](O)[C@H](O)C3)ccc2c1=O` [Example 322, 1-(2-Chloro-4,6-difluorophenyl)-7-[(3R,4R)-3,4-dihydroxypyrrolidin-1-yl]-4-oxo-N-[(2S)-1-(trifluoromethoxy)propan-2-yl]-1,4-dihydro-1,8-naphthyridine-3-carboxamide] gave an EC50 of 40 nM.

On to `CC[C@@H](NC(=O)c1cn(-c2c(F)cc(F)cc2F)c2nc(N3CCC(C)(O)C3)ccc2c1=O)C(F)(F)F` (stereo partly drawn) [Example 324, 7-[3-Hydroxy-3-methylpyrrolidin-1-yl]-4-oxo-N-[(2R)-1,1,1-trifluorobutan-2-yl]-1-(2,4,6-trifluorophenyl)-1,4-dihydro-1,8-naphthyridine-3-carboxamide], for which the EC50 is 34 nM.

In the case of `CC[C@H](NC(=O)c1cn(-c2c(F)cccc2F)c2nc(N3CCC(C)(O)C3)ccc2c1=O)C(F)(F)F` (stereo partly drawn) [Example 327, 1-(2,6-Difluorophenyl)-7-[3-hydroxy-3-methylpyrrolidin-1-yl]-4-oxo-N-[(2S)-1,1,1-trifluorobutan-2-yl]-1,4-dihydro-1,8-naphthyridine-3-carboxamide], a half-maximal response (EC50) required 69 nM.

`CC[C@@H](NC(=O)c1cn(-c2ccc(F)cc2F)c2nc(N3CC(C)(OC)C3)ccc2c1=O)C(F)(F)F` [Example 328, 1-(2,4-Difluorophenyl)-7-(3-methoxy-3-methyazetidin-1-yl)-4-oxo-N-[(2R)-1,1,1-trifluorobutan-2-yl]-1,4-dihydro-1,8-naphthyridine-3-carboxamide] had an EC50 of 79 nM.

Regarding `CC[C@H](NC(=O)c1cn(-c2c(F)cc(F)cc2Cl)c2nc(N3C[C@@](C)(O)C[C@H]3C)ccc2c1=O)C(F)(F)F` [Example 334, 1-(2-Chloro-4,6-difluorophenyl)-7-[(2R,4S)-4-hydroxy-2,4-dimethylpyrrolidin-1-yl]-4-oxo-N-[(2S)-1,1,1-trifluorobutan-2-yl]-1,4-dihydro-1,8-naphthyridine-3-carboxamide], the EC50 was found to be 7 nM.

The compound `CC[C@@H](NC(=O)c1cn(-c2ccc(F)cc2F)c2nc(N3CCCC3=O)ccc2c1=O)C(F)(F)F` [Example 337, 1-(2,4-Difluorophenyl)-4-oxo-7-(2-oxopyrrolidin-1-yl)-N-[(2R)-1,1,1-trifluorobutan-2-yl]-1,4-dihydro-1,8-naphthyridine-3-carboxamide] had an EC50 of 36 nM.

Turning to `C[C@H](NC(=O)c1cn(-c2c(F)cc(F)cc2F)c2nc(N3CCNC3=O)ccc2c1=O)C(F)(F)F` [Example 341, 4-Oxo-7-(2-oxoimidazolidin-1-yl)-1-(2,4,6-trifluorophenyl)-N-[(2S)-1,1,1-trifluoropropan-2-yl]-1,4-dihydro-1,8-naphthyridine-3-carboxamide], the EC50 amounted to 56 nM.

Turning to `CC[C@H](NC(=O)c1cn(-c2c(F)cc(F)cc2F)c2nc(N3CCNC3=O)ccc2c1=O)C(F)(F)F` [Example 343, 4-Oxo-7-(2-oxoimidazolidin-1-yl)-N-[(2S)-1,1,1-trifluorobutan-2-yl]-1-(2,4,6-trifluorophenyl)-1,4-dihydro-1,8-naphthyridine-3-carboxamide], the response was half-maximal at 25 nM (EC50).

`CC[C@@H](NC(=O)c1cn(-c2ccc(F)cc2F)c2nc(N3CCCN(CC)C3=O)ccc2c1=O)C(F)(F)F` [Example 344, 1-(2,4-Difluorophenyl)-7-(3-ethyl-2-oxotetrahydropyrimidin-1(2H)-yl)-4-oxo-N-[(2R)-1,1-trifluorobutan-2-yl]-1,4-dihydro-1,8-naphthyridine-3-carboxamide] displayed an EC50 of 54 nM.

In the case of `O=C(N[C@@H](C1CC1)C(F)(F)F)c1cn(-c2c(F)cccc2F)c2nc(N3C[C@@H](O)[C@H](O)C3)ccc2c1=O` [Example 345, N-[(1 S)-1-Cyclopropyl-2,2,2-trifluoroethyl]-1-(2,6-difluorophenyl)-7-[(3R,4R)-3,4-dihydroxypyrrolidin-1-yl]-4-oxo-1,4-dihydro-1,8-naphthyridine-3-carboxamide], a half-maximal effect (EC50) was put at 59 nM.

As to `CC[C@H](NC(=O)c1cn(-c2c(F)cccc2Cl)c2nc(N3C[C@@H](O)[C@H](O)C3)ccc2c1=O)C(F)(F)F` [Example 346, 1-(2-Chloro-6-fluorophenyl)-7-[(3R,4R)-3,4-dihydroxypyrrolidin-1-yl]-4-oxo-N-[(2S)-1,1-trifluorobutan-2-yl]-1,4-dihydro-1,8-naphthyridine-3-carboxamide], the EC50 came out at 50 nM.

The compound `O=C(N[C@@H](C1CC1)C(F)(F)F)c1cn(-c2c(F)cccc2Cl)c2nc(N3C[C@@H](O)[C@H](O)C3)ccc2c1=O` [Example 347, 1-(2-Chloro-6-fluorophenyl)-N-[(1 S)-1-cyclopropyl-2,2,2-trifluoroethyl]-7-[(3R,4R)-3,4-dihydroxypyrrolidin-1-yl]-4-oxo-1,4-dihydro-1,8-naphthyridine-3-carboxamide] had an EC50 of 34 nM.

As to `CC[C@H](NC(=O)c1cn(-c2c(F)cccc2F)c2nc(N3C[C@@H](O)[C@H](O)C3)ccc2c1=O)C(F)(F)F` [Example 348, 1-(2,6-Difluorophenyl)-7-[(3R,4R)-3,4-dihydroxypyrrolidin-1-yl]-4-oxo-N-[(2S)-1,1,1-trifluorobutan-2-yl]-1,4-dihydro-1,8-naphthyridine-3-carboxamide], it took 61 nM to reach a half-maximal effect (EC50).

On to `CC[C@H](NC(=O)c1cn(-c2c(F)cccc2Cl)c2nc(N3C[C@@H](O)CC3=O)ccc2c1=O)C(F)(F)F` [Example 351, 1-(2-Chloro-6-fluorophenyl)-7-[(4S)-4-hydroxy-2-oxopyrrolidin-1-yl]-4-oxo-N-[(2S)-1,1,1-trifluorobutan-2-yl]-1,4-dihydro-1,8-naphthyridine-3-carboxamide], for which a half-maximal response (EC50) required 17 nM.
